First: CCOC(=O)C1Cc2c([nH]c3ccccc23)CN1C(=S)SCc1ccc(Cl)cc1 (configuration not stated)
Second: CC(=O)Nc1ccc(C(=O)N2CC3CC(CN(Cc4ccc(Cl)cc4)C3)C2)cc1
The melting point of the first is higher: 195 to 197 °C for the first, 181 °C for the second.

First: CCOC(OCC)C(=O)Nc1ccc(Cl)cc1N
Second: C=C(OCCCC)c1ccc(NC(C)=O)nc1
The melting point of the first is higher: 89 to 90 °C for the first, 55 to 58 °C for the second.

First: CCOC(=O)C=Cc1ccc(OCCN(C)c2ccccn2)cc1
Second: N#Cc1ccccc1-c1ccc(OCC(=O)C2CC2)cc1
The melting point of the first is lower: 80 to 81 °C for the first, 82 to 84 °C for the second.

Compared with `Cc1nnsc1C(=O)c1[nH]c2cc(Cl)ccc2c1CC(=O)O`, `CC1(C)CC(=O)c2c(ncc3[nH]c4cc(Cl)ccc4c23)C1` is higher in melting point: 215 to 216 °C for the first, 257 to 259 °C for the second.

First: Cc1c(F)cc(C(=O)NC2CC2)cc1I
Second: CCOC(=O)c1c(C(F)(F)F)nc(C(F)F)c(C(=O)OC)c1NC1CC1
The melting point of the first is higher: 112 to 114 °C for the first, 68 to 69.5 °C for the second.

Compared with `C=CCN1CCN(C2=NC3(C=CC(=O)C=C3)C(c3ccccc3)=C2)CC1`, `Cc1c(-c2ccccc2)nc2n1C(C)(C)Cc1ccccc1C2OC1CCN(C)CC1` (configuration not stated) is lower in melting point: 171 °C for the first, 152 °C for the second.

First: Cc1ncnc(Cl)c1C
Second: CCn1nnn(-c2cc(OCOC)c(Cl)cc2Cl)c1=O
The melting point of the first is lower: 45 to 47 °C for the first, 112 to 113 °C for the second.

Compared with `COC(=O)c1c(C(=O)OC)c(C(C)C)n(CCC2CC(O)CC(=O)O2)c1-c1ccc(F)cc1` (configuration not stated), `CC(C)(C)COc1ccc(N(CC(=O)O)C(=O)c2cnn(-c3ccc(F)cc3)c2)cc1C#N` is higher in melting point: 167 to 170 °C for the first, 274 to 275 °C for the second.

Compared with `Oc1ccc(-c2ccc(-c3ccccc3)nc2-c2ccc(OCCN3CCCC3)cc2)cc1`, `Oc1ccc2nc(-c3ccccc3)cc(Cl)c2c1` is higher in melting point: 176 to 178 °C for the first, 180 to 181 °C for the second.

Compared with `C(#Cc1cc2ccccc2s1)c1cccs1`, `Cc1ncc(-c2ccccc2)s1` is lower in melting point: 114 to 116 °C for the first, 72 to 74 °C for the second.

Going from `Fc1c(Cl)cccc1Br` to `Fc1cccc2sc(S)nc12`, the melting point rises from 43 °C to 180 °C.

First: CC(C)c1cccc(CCC(O)CC2CCCCC2)c1NC(=O)CC1c2ccccc2Oc2ccccc21 (configuration not stated)
Second: O=C(O)CCc1ccc(CNC(=O)OCC2c3ccccc3-c3ccccc32)cc1
The melting point of the first is lower: 148 °C for the first, 164 to 166 °C for the second.

First: O=C1c2c(Cl)cccc2-n2cnc(CO)c2C2CCCN12 (configuration not stated)
Second: O=C1c2ccccc2-n2cncc2[C@@H]2CCCN12
The melting point of the first is higher: 303 to 305 °C for the first, 211 to 212 °C for the second.

First: Cn1cnc(S(=O)(=O)NCCCN2CCOCC2)c1
Second: Cc1cc(C)cc(N(CCCC(=O)O)Cc2ccc3nc(NCCCN4CCOCC4)n(Cc4nc(C)ccc4O)c3c2)c1
The melting point of the first is higher: 148 to 149 °C for the first, 121 °C for the second.

First: O=c1[nH]c2ccc(OC3CCCC3)cc2n1C1CCCCC1
Second: CN(C(=O)CCCOc1ccc2nc3n(c(=O)c2c1)CC(=O)N3)C1CCCCC1
The melting point of the first is higher: 242 °C for the first, 200 to 202 °C for the second.

First: CCCCC(CC)COc1ccc(C=C2C(=O)C3CCN2CC3)cc1 (configuration not stated)
Second: CN(CC1CCN(c2ccc(OC(F)(F)F)cc2)CC1)c1ccc(OC[C@@]2(C)Cn3cc([N+](=O)[O-])nc3O2)cc1
The melting point of the first is lower: 37 °C for the first, 172 to 175 °C for the second.

First: NNc1cc2c(nn1)CCN(C(=O)c1ccccc1F)C2
Second: COC(=O)c1cccc(CN2CCc3cc(O)c(OC)cc3C2)c1
The melting point of the first is higher: 210 to 213 °C for the first, 156 to 158 °C for the second.

Compared with `Cc1ccc(Cc2cnc(NCCCNc3ncccc3C)[nH]c2=O)cn1`, `Cc1ccc(-c2nc3cccnc3n2CC(=O)O)s1` is higher in melting point: 119 to 123 °C for the first, greater than 250 °C for the second.

First: CC(C)(O)Cn1c(CO)nc2c(N)nc3cc(-c4ccc(F)c(F)c4)cnc3c21
Second: CCc1cc(C2(c3ccc(F)c(-c4cnccc4F)c3)N=C(N)N(C)C2=O)cc(CC)n1 (configuration not stated)
The melting point of the first is higher: 256 to 258 °C for the first, 92 to 100 °C for the second.

First: O=P(c1ccccc1)(c1ccccc1)c1nnc(P(=O)(c2ccccc2)c2ccccc2)c2ccccc12
Second: COC(=O)c1cc(-c2ccccc2)c(=O)n2ncc3ccccc3c12
The melting point of the first is higher: 225 to 228 °C for the first, 174 to 175 °C for the second.

First: Cc1cc(-c2nc3cccnn3c2-c2ccnc(NC(=O)c3ccc4ncsc4c3)c2)ccc1F
Second: CC(=O)Nc1cccc(Nc2ncnc3[nH]cc(C(=O)c4cccc(F)c4)c23)c1
The melting point of the first is lower: 252 to 253 °C for the first, greater than 300 °C for the second.

Compared with `CC(=O)Nc1cccc2c1C(C#N)C2` (configuration not stated), `Cc1ccccc1NC(=O)Nc1ccc(CC(=O)O)cc1` is higher in melting point: less than 50 °C for the first, 205 to 206 °C for the second.

Compared with `Cc1cc(C=O)ccc1C(=O)O`, `COc1cccc2c(=O)sc(C(=O)O)cc12` is higher in melting point: 196 to 198 °C for the first, 283 to 284 °C for the second.

First: O=c1ccc(-c2ccnnc2)c[nH]1
Second: COC(=O)c1ccc(-c2nnc(-c3ccc(C(F)(F)F)cc3)s2)cc1
The melting point of the first is higher: greater than 250 °C for the first, 218 to 219 °C for the second.

Compared with `COc1cc2c(Nc3cccc(Cl)c3F)ncnc2cc1OC1CCN(C(=O)C2CCCO2)CC1` (configuration not stated), `CCN1C(=O)CCC(C)(C)c2cc(Nc3ncc(Cl)c(N[C@H]4[C@@H](C(N)=O)[C@@H]5C=C[C@H]4C5)n3)c(OC)cc21` is lower in melting point: 193 to 194 °C for the first, 156 to 166 °C for the second.

`Nc1ncc2cc(-c3c(Cl)ccc(Cl)c3Cl)c(N)nc2n1` and `Nc1nc(N)nc(-c2csc(-c3ccc(C(F)(F)F)cc3)n2)n1` cannot be ordered by melting point: 320 to 322 °C for the first, greater than 260 °C for the second.

First: CC(=O)Oc1cc(Cl)c(Cl)c(Cl)c1N1CC(O)CC1=O (configuration not stated)
Second: CC(C)CCN1CCC(CNC(=O)c2cc(Cl)c(N)[nH]c2=O)CC1
The melting point of the first is lower: 84 to 86 °C for the first, 131 to 135 °C for the second.

First: CCOC(=O)C=C(C)C=CC=C(C)C=Cc1c(C)c(C)c(OC)c(C)c1Cl
Second: COc1c(/C=C/C(=O)Nc2ccccc2)c(=O)c2ccc(Cl)cc2[nH]c1=O
The melting point of the first is lower: 90 °C for the first, 215 to 217 °C for the second.

First: COC(=O)C(Cl)=Cc1cc([N+](=O)[O-])ccc1Cl
Second: CCN(CC)c1ccc(C=O)c([N+](=O)[O-])c1
The melting point of the first is higher: 108 to 110 °C for the first, 75 to 77 °C for the second.

First: COC(=O)c1c(C(F)F)nc(C(F)(F)F)c(C(=O)SC)c1NC1CC1
Second: C=CCNC(=O)N1CC(Oc2ccc(C(F)(F)F)cc2)C1
The melting point of the first is higher: 108 to 109 °C for the first, 91 to 92.5 °C for the second.

First: Cc1noc(C)c1S(=O)(=O)N(C)c1ccc(Cl)cc1[N+](=O)[O-]
Second: O=C(O)CN1C(=O)c2cccc([N+](=O)[O-])c2C1=O
The melting point of the first is lower: 99 to 101 °C for the first, 200 to 202 °C for the second.

Compared with `CSc1nnc(-c2ccc3occ(-c4cc(F)ccc4F)c3c2)o1`, `Cc1cc(=O)c(Oc2ccc(F)cc2F)c(-c2ccc(S(C)(=O)=O)cc2)o1` is higher in melting point: 158 to 159 °C for the first, 191 °C for the second.

First: O=CNCC1CN(c2c(F)cc3c(=O)c(C(=O)O)cn(C4CC4)c3c2F)CCO1 (configuration not stated)
Second: CN1CCN(C(=O)CCC(=O)c2ccc3[nH]c4ncc(Cl)cc4c3c2)CC1
The melting point of the first is lower: 210 to 213 °C for the first, 233 °C for the second.

First: Cn1c(=O)sc2ccc(Cl)cc21
Second: Cc1nsc(NC(=O)Cc2ccc(O)c(N)c2)c1Cl
The melting point of the first is lower: 106 to 108 °C for the first, 239 to 243 °C for the second.

Compared with `CS(=O)(=O)Nc1cc2occ(-n3cccc3)c(=O)c2cc1Oc1ccccc1`, `CCC(c1cccc(Br)c1)c1c(O)c2ccccc2oc1=O` (configuration not stated) is lower in melting point: 238 to 240 °C for the first, 168 to 172 °C for the second.

Compared with `COc1ccc(-c2cc3ccc(OC)cc3s2)cc1`, `CCOC1CN(Cc2ccc(OC)cc2)Cc2cc(OC)c(OCc3ccccc3)cc21` (configuration not stated) is lower in melting point: 193 to 194 °C for the first, 84 to 85 °C for the second.

Compared with `CN(C)C(=O)[C@@H]1CCCN1C(=O)OCc1ccccc1`, `OC1CCCCC1c1ccccc1` (configuration not stated) is lower in melting point: 66 to 67 °C for the first, 55 to 57 °C for the second.

Compared with `CC(C)(C(=O)O)c1ccc2cc(O)ccc2c1`, `O=C(NC1c2sc([N+](=O)[O-])cc2OCC1O)c1ccc(C(F)(F)F)cc1` (configuration not stated) is higher in melting point: 208 to 210 °C for the first, 219 to 220 °C for the second.

First: COc1cc(COc2cc(C=O)n(-c3ccccc3)n2)ccc1OCc1nc(-c2ccco2)oc1C
Second: COc1cc(COc2nn(C)cc2C(=O)O)ccc1OCc1nc(-c2ccccc2)oc1C
The melting point of the first is lower: 103 to 104 °C for the first, 169 to 170 °C for the second.

Compared with `CC(=O)NC(n1ccnc1)C(Cl)(Cl)CCl` (configuration not stated), `CCOC(=O)C(CC)c1ccc(N[C@@H](CCC(N)=O)C(=O)O)cc1` (some centres not stated) is higher in melting point: 151 to 154 °C for the first, 157 °C for the second.

First: OCC1OC(n2cnc3c(NC4Cc5ccccc5C4)ncnc32)C(O)C1O (configuration not stated)
Second: COc1ncc(C2OC(CO)C(O)C2O)c(OC)n1 (configuration not stated)
The melting point of the first is higher: 166 to 168 °C for the first, 138 to 139 °C for the second.

First: COc1cc2c(cc1OC)CN(CCc1ccc(NC(=O)c3cccc4c(=O)c5cccc(F)c5[nH]c34)cc1)CC2
Second: CN(Cc1ccc(NC(=O)C2=Cc3cc(-c4ccc(C(C)(C)C)cc4)ccc3S(=O)(=O)CC2)cc1)C1CCOCC1
The melting point of the first is lower: 212 °C for the first, 247 to 249 °C for the second.

First: Cc1sc(-c2ccccc2)nc1COc1cc(CO)on1
Second: CN(CCO)c1ccnc(CSc2nc3ccccc3[nH]2)c1Cl
The melting point of the first is lower: 84 to 85 °C for the first, 132 to 135 °C for the second.

First: CC(=O)Oc1c2c(c3ccccc3c1OC(C)=O)N(C(C)=O)c1ccccc1S2
Second: O=C(O)c1c2nc3cc(Cl)c(Br)cc3c-2[nH]c2ccccc12
The melting point of the first is lower: 213 to 214 °C for the first, greater than 243 °C for the second.

Compared with `O=C(CCCCCN1CCN(c2cccc3c2CCCC3)CC1)N1Cc2ccccc2C1`, `N#CCCN1CCc2c3n(c4ccccc24)C(=O)CCC31` (configuration not stated) is higher in melting point: 115 °C for the first, 156 to 157 °C for the second.

First: CCCCC1=NC2(CCCC2)C(=O)N1Cc1ccc(-c2ccccc2S(=O)(=O)Nc2onc(C)c2C)c(CN2CCC(C)(C)C2=O)c1
Second: Nc1ccccc1-c1nc(CCS(=O)(=O)CCO)no1
The melting point of the first is lower: 104 to 110 °C for the first, 118 to 119 °C for the second.

First: CC1COc2c(F)c(F)c([N+](=O)[O-])c3c(=O)[nH]c(=O)n1c23 (configuration not stated)
Second: CN1NC(=O)C2C(C1=O)C2(C)C (configuration not stated)
The melting point of the first is higher: 286 to 288 °C for the first, 151 to 154 °C for the second.

First: CN(C)C=Cc1nc2ccc(F)cc2c(=O)n1-c1cccnc1Cl
Second: CCN(CC)c1ccc(/C=C/c2c(F)cccc2F)cc1
The melting point of the first is higher: 197 to 200 °C for the first, 70 to 71 °C for the second.

Compared with `N#Cc1ccc(CN2CC=C(c3nc4ccccc4s3)CC2)cc1`, `CS(=O)(=O)Oc1ccc(N2CC(COc3ccc(C(=O)O)cc3)CC2=O)cc1` (configuration not stated) is higher in melting point: 165 to 166 °C for the first, 199 to 201 °C for the second.

Compared with `Nc1ncnc2c([C@@H]3N[C@H](CO)[C@@H](O)[C@H]3O)c[nH]c12`, `CCCc1c(CSc2nnc(SCCCCCC(=O)O)s2)ccc(C(C)=O)c1O` is lower in melting point: 238 °C for the first, 67 to 74 °C for the second.

First: O=C(C=Cc1ccccc1F)C=Cc1ccccc1F
Second: CCOC(=O)c1c2ccc(CC(=O)NOCC(N)=O)ccc-2c(C(=O)OCC)c1N
The melting point of the first is lower: 68 to 72 °C for the first, 208 to 210 °C for the second.

— a melting point compilation (Tetko et al.; mined from patent text by program, amines drawn as free bases though some values may be those of a salt)
